# Reference: ChEMBL document CHEMBL3046719, “Photooxygenation of Nimonol, a Tetranortriterpenoid from Azadirachta indica. A. Juss” (2002)
# Experiments:
# Format in all cases: functional
# Spodoptera litura [1] = assay: Antifeedant activity against Spodoptera litura at 0.5 ug
# Spodoptera litura [2] = assay: Antifeedant activity against Spodoptera litura at 5 ug
# Spodoptera litura [3] = assay: Antifeedant activity against Spodoptera litura at 1 ug
Structure (SMILES),Activity (Spodoptera litura [1]),Activity (Spodoptera litura [2]),Activity (Spodoptera litura [3])
CC(=O)O[C@@H]1[C@H](O)[C@H]2C(C)(C)C(=O)C=C[C@]2(C)[C@H]2CC[C@]3(C)C(=CC[C@H]3c3ccoc3)[C@]12C [NIMONOL],32.5%,32.2%,55.7%
CC(=O)O[C@@H]1[C@H](O)[C@H]2C(C)(C)C(=O)C=C[C@]2(C)[C@H]2CC[C@@]3(C)[C@H](C4=CC(O)OC4=O)C[C@@H]4O[C@@]43[C@]12C (some centres not stated) [NIMONOLIDE],67.5%,82.5%,80.2%
CC(=O)O[C@@H]1[C@H](O)[C@H]2C(C)(C)C(=O)C=C[C@]2(C)[C@H]2CC[C@@]3(C)[C@H](C45CC(O)OC4O5)C[C@@H]4O[C@@]43[C@]12C (some centres not stated) [NIMONOL PP2],55.3%,73.5%,68.7%
C/C=C(\C)C(=O)O[C@H]1C[C@@H](OC(C)=O)[C@@]2(C(=O)OC)CO[C@H]3[C@@H](O)[C@@](C)([C@]45O[C@@]4(C)[C@@H]4C[C@H]5O[C@@H]5OC=C[C@@]54O)[C@H]4[C@]1(CO[C@]4(O)C(=O)OC)[C@@H]32 [AZADIRACHTIN A],83.3%,100%,85.5%
